From US9096607B2, “Tumor necrosis factor inhibitors” (THE TRUSTEES OF THE UNIVERSITY OF PENNSYLVANIA, priority 2005, dated 2015) come the findings set out here.

Where a chain is given by its changes, count along the chain named.

One assay concerns the target T1, mutant TNF-R1 (Homo sapiens, UniProt P19438, F141E/Q111E).
T1 construct: The ectodomain of wild type TNF receptor 1 was obtained by PCR from pKP13; made in house
T1 sequence (P19438 30-211 Q111E/F141E limits assumed): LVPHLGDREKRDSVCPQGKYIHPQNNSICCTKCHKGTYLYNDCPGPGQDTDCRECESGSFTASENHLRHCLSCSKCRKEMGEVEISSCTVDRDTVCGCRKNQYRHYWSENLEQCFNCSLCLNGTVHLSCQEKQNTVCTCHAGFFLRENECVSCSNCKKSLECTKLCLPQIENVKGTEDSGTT
Kind of assay: Surface plasmon resonance, TNF-α binding to mutant TNF-R1. Particulars: SPR, mutant TNF-R1 (82E, 112E). From the text: (§1) Mutations of the TNF-R1 receptor were made at residues 82Q and 112F in the cavity, which were mutated to 82E and 112E respectively. The structural integrity of the mutant receptor was verified by ligand binding in surface plasmon resonance (SPR) studies. […] TNF-α retained the ability to bind to the mutant receptor, albeit with somewhat reduced affinity. These studies confirm that the test compound bound to a single and specific cavity on wild type TNF-R1.
(§2) Recombinant TNF receptor wild type and mutant were immobilized to the CM5 sensor chip with a surface density of 2,000 resonance units. The binding affinity of TNF-α to TNF-R1 was estimated by BiaCORE 3000 (BiaCORE, Uppsala, Sweden) at 25° C. The apparent rate constants (kon and koff) and the equilibrium binding constant (Kd) for TNF/TNF-R binding interaction were estimated from the kinetic analysis of sensorgrams, using the BIA evaluation 3.0 software (BiaCORE).
In general terms: In SPR one partner is held on a chip, and binding of the other changes the refractive index at the surface.

Another assay addresses T2, wild type TNF-R1 (Homo sapiens, UniProt P19438).
T2 construct: The ectodomain of wild type TNF receptor 1 was obtained by PCR from pKP13; made in house
T2 sequence (P19438 30-211 limits assumed): T1 sequence (P19438 30-211 Q111E/F141E limits assumed) with E82Q, E112F
The assay can be described thus: Surface plasmon resonance, TNF-α binding to wild type TNF-R1. To be noted: SPR.
Description: as §1, §2

The next assay deals with L929 cells. Kind of assay: Inhibition of TNF-α mediated cytolysis of L929 cells (Alamar Blue). The format is cell-based, murine. To be noted: TNF-α 100 pg/mL, actinomycin D 1 μM. An excerpt:
L929 cultured murine fibroblasts cells were obtained from American Type Culture Collection (Manassas, Va.). Tissue culture reagents were from Invitrogen or Sigma-Aldrich. TNF-α and Actinomycin D were from Sigma-Aldrich. Alamar Blue reagents (Cell Titer Blue™) were from Promega. The test compounds I-1 through I-16, II-1 through II-8, and III-1 through III-3 were obtained commercially or can be prepared as described above. The test compounds were individually dissolved in dimethylsulfoxide (DMSO). The test compounds were maintained at 4° C. when not in use. Other reagents were high-purity (ACS-grade, HPLC-grade, MilliQ water, or similar).
Stock L929 cells were grown on tissue culture plastic in complete DMEM (Dulbecco's Modified Eagles Medium) supplemented with 10% FBS (Fetal Bovine Serum), NEAA (non-essential amino acids), and glutamine. L929 cells were plated using the same medium on 96-well tissue culture plates at high density (i.e., ˜4×10^4 cells/well, or similar) before use.
Approximately 20 h after plating, the L929 cells on 96-well plates were re-fed with fresh medium containing one of the test compounds in a concentration selected from 100 μM, 50 μM, 25 μM as a “pre-treatment.” Approximately 30-60 min later, samples were treated with an additional amount of test compound (in the same amount and at the same concentration as the pre-treatment) prepared in medium containing TNF-α (200 pg/mL), and actinomycin D (2 μM). The final concentration of TNF-α in assays was 100 pg/mL. The final concentration of actinomycin D in assays was 1 μM. The plates were incubated for an additional 22-23 h, the Alamar Blue assay reagents were added and metabolic cell viability was determined from reduction of a fluorogenic Alamar Blue derivative.
The temperature was maintained at 37° C. with 5% CO2 and humidified. The metabolic viability was measured 1-2 h after addition of assay reagents/Alamar Blue derivative using TECAN SaFire fluorescence plate reader (Tecan Group Ltd., Maennedorf, Switzerland).
Inhibition of TNF-α induced cytolysis by a test compound (X) at a given concentration (y) was calculated as follows: […]
In general terms: Resazurin is reduced to fluorescent resorufin, in cell work by metabolically active cells.

As usually defined, the Kd is the constant that tells how readily two partners part at equilibrium. Low readings indicate tighter binding, high ones weaker binding. For the compound TNF-α, the Kd at mutant TNF-R1 was 4650 nM; on wild type TNF-R1, 0.379 nM.

For the compound `O=C([O-])c1ccccc1C(c1ccc(O)cc1)c1ccc(O)cc1.[K+]` [II-7, Potassium 2-[bis-(4-hydroxyphenyl)-methyl]-benzoate], in the assay on L929 cells (25 μM compound), the “% Inhibition at: 25 μM” value was 22.5%. For the same compound, the “% Inhibition at: 50 μM” value in the assay on L929 cells (50 μM compound) is 19.1%. The “% Inhibition at: 100μM” value with L929 cells (100 μM compound) is 13.2%.
